Patent US5989846A, “Assays to identify inducers of plant defense resistance” (Rutgers, The State University of New Jersey, priority 1995, dated 1999)

Assays:
[1] = tested on: TMV; assay type: in vivo, tobacco mosaic virus; details: N.t. cv. Xanthi nc plants, compared to water-treated control plants
Method: The SA/SAG valves are given in micrograms per gram fresh weight of leaf tissue and represent averages of values from 3-6 treated plants at 6 days past injection. […] For determination of reduction in lesion size, longitudinal halves of 2 leaves on 3-6 plants were injection with chemicals, and six days later the entire leaf was infected with TMV. Twenty lesions were measured on each half of the leaf seven days post infection; the values given represent the average percent reduction in lesion diameter in the treated leaf half compared to the untreated half.

[2] = tested on: PR1 genes; test: PR-1 protein/gene expression in tobacco leaves (immunoblot); assay type: in vivo; details: N.t. cv. Xanthi nc
Method: The level of PR1 protein in tobacco leaves was analyzed by immunoblot analysis to establish biological activity. Three leaf discs (1 cm in diameter) were homogenized in 200 microliters of buffer containing 50 mM Tris (pH 8.0), 1 mM EDTA, 12 mM beta-mercaptoethanol and 10 mg/ml phenylmethylsulfonyl fluoride. The homogenate was centrifuged at full speed for 10 minutes in an Eppendorf microcentrifuge. The supernatant was fractionated with 15% polyacrylamide gel under denatured conditions. Protein blotting was done with a monoclonal antibody specific to PR1 protein and protein-antibody complexes were detected with an ECL kit from Amersham.
PR gene expression is both induced by SA and associated with the development of SAR. Therefore, it was of interest to test whether SA's mechanism of action for the induction of PR genes was via its inhibition of catalases which leads to enhanced H2 O2 levels. To address this question, H2 O2 abundance was artificially raised in tobacco leaves by treating with H2 O2 or compounds which either inhibit the catalase activity, like SA itself, or promote generation of H2 O2 in vivo. […]

[3] = tested on: catalase; test: In vivo catalase activity in tobacco suspension cells (oxygen electrode); assay type: cell-based
Method: This was determined by adding increasing concentrations of SA or INA to tobacco suspension cells (derived from cultivar Xanthi nc), as described below. The tobacco suspension cell culture was grown in the dark in MS medium at approximately 22° C. with agitation (160 rpm). Cells were maintained by diluting 10-fold every 5 days. For experimentation, 5 ml of suspension cells obtained 3 days after dilution was transferred to a 25 ml Erlenmeyer flask and agitated (100 rpm) at room temperature in the absence or presence of SA or INA which had been adjusted to pH 5.8. After 1 hr, 1 ml of the treated cell suspension was transferred to 7 ml of fresh MS medium containing SA or INA in a 10 ml beaker (density was approximately 6 mg cells per ml). Cells were maintained in suspension with a magnetic stir bar. In vivo catalase activity was determined by measuring, with an oxygen electrode, the rate of H2 O2 -dependent O2 production immediately after addition of H2 O2 to 10 mM final concentration.

[4] = tested on: SABP/catalase; test: Competition with 14C-labeled SA for SABP/catalase in crude leaf extracts; assay type: binding, tobacco; details: in vitro
[5] = tested on: ascorbate peroxidase; test: Ascorbate peroxidase activity in tobacco leaf extracts; assay type: biochemical, Nicotiana tabacum cv. Xanthi nc; details: 200 μM compound, corrected for quenching of auto oxidation
Method: […] Two grams of leaves from 6-8 week old tobacco plants (Nicotiana tabacum cv. Xanthi nc) grown at 22° C. in a 14 hr light cycle were homogenized under liquid nitrogen using a pestle and mortar.
To obtain ascorbate peroxidase-containing extracts, the soluble proteins were extracted by grinding the powder in 10 ml of 100 mM potassium phosphate, pH 7, containing […] ascorbate and 1% (weight/volume) polyvinylpyrrolidone, with a small amount of quartz sand. The homogenate was centrifuged at 14,000 g for 5 min. […] The pellet resulting from centrifugation (14,000 g, 15 min.) was resuspended in extraction buffer (100 mM potassium phosphate, pH7, containing 0.25 mM ascorbate and 1% (weight/volume) polyvinylpyrrolidone) and desalted on a PD-10 column (Pharmacia) equilibrated with 50 mM potassium phosphate, pH 7, containing 100 μM ascorbate. The extract was used immediately. […] The amount of protein per assay was 30-50 μg. Oxidation of ascorbate was followed by the decrease in the absorbance at 290 nm.
The values illustrated in FIG. 17 are the mean values for three replicated assays.

| Structure (SMILES) | Enhanced resistance to TMV infection (reduction in lesion size) [1] | Induction of PR-1 protein synthesis / PR-1 gene induction (in words) [2] | Inhibition of catalase activity in vivo (in words) [3] | Inhibition of binding of 14C-labeled SA to SABP/catalase in vitro (in words) [4] | % Inhibition of ascorbate peroxidase [5] [%] |
| --- | --- | --- | --- | --- | --- |
| O=C(O)c1cc(Cl)ccc1O [5-Chlorosalicylic acid] | enhanced resistance to TMV infection | potent inducers of PR-1 protein synthesis | very effectively inhibited catalase activity | very effectively inhibited | 73 ± 5 |
| O=C(O)c1ccc(Cl)cc1O [4-Chlorosalicylic acid] | enhanced resistance to TMV infection | potent inducers of PR-1 protein synthesis | very effectively inhibited catalase activity | very effectively inhibited | 58 ± 4 |
| O=C(O)c1cc(Cl)cc(Cl)c1O [3,5-Dichlorosalicylic acid] | enhanced resistance to TMV infection | potent inducers of PR-1 protein synthesis | very effectively inhibited catalase activity | very effectively inhibited | 59 ± 5 |
